± gives the expanded uncertainty stated by the source.
Tests used:
[1] = 101 kPa, Liquid
[2] = xn = mol fraction of the nth substance listed; details: 101 kPa, Liquid, x1 = 1

Compound: CCCCn1cc[n+](C)c1.O=S(=O)([O-])C(F)(F)F [1-butyl-3-methylimidazolium trifluoromethanesulfonate]
- mass density ([1]; 303.15 K): 1298.4 ± 4 kg/m3
- viscosity ([1]; 303.15 K): 63.19 ± 4.1 mPa·s
- mass density ([1]; 308.15 K): 1294.9 ± 4.1 kg/m3
- viscosity ([1]; 308.15 K): 51.73 ± 3.6 mPa·s
- mass density ([1]; 313.15 K): 1291.4 ± 4.2 kg/m3
- viscosity ([1]; 313.15 K): 42.46 ± 2.8 mPa·s
- mass density ([1]; 318.15 K): 1287.8 ± 4.3 kg/m3
- viscosity ([1]; 318.15 K): 35.17 ± 2.3 mPa·s
- mass density ([1]; 323.15 K): 1284.4 ± 4.5 kg/m3
- viscosity ([1]; 323.15 K): 29.55 ± 2 mPa·s
- mass density ([1]; 333.15 K): 1277.4 ± 4.7 kg/m3
- viscosity ([1]; 333.15 K): 21.61 ± 1.5 mPa·s
- mass density ([1]; 343.15 K): 1270.5 ± 4.9 kg/m3
- viscosity ([1]; 343.15 K): 16.38 ± 1.1 mPa·s

Compound: O [water] + CCCCn1cc[n+](C)c1.O=S(=O)([O-])C(F)(F)F
- viscosity ([2]; 303.15 K): 0.7977 ± 0.081 mPa·s
- viscosity ([2]; 308.15 K): 0.719 ± 0.074 mPa·s
- viscosity ([2]; 313.15 K): 0.6532 ± 0.069 mPa·s
- viscosity ([2]; 318.15 K): 0.6001 ± 0.064 mPa·s
- viscosity ([2]; 323.15 K): 0.547 ± 0.06 mPa·s
- mass density ([2]; 333.15 K): 983.2 ± 3.3 kg/m3
- viscosity ([2]; 333.15 K): 0.4665 ± 0.053 mPa·s
- mass density ([2]; 343.15 K): 977.8 ± 3.5 kg/m3
- viscosity ([2]; 343.15 K): 0.404 ± 0.048 mPa·s
